Measurements taken from PMC6438538, “Targeting ferroptosis: A novel therapeutic strategy for the treatment of mitochondrial disease-related epilepsy” (PLoS ONE, 2019).

Molecular target: T1, 15-lipoxygenase-1 (15-LO) (Homo sapiens, UniProt P16050)
T1 construct: gene ALOX15; 6xHis-tagged human 15-LO
T1 sequence (P16050 2-662): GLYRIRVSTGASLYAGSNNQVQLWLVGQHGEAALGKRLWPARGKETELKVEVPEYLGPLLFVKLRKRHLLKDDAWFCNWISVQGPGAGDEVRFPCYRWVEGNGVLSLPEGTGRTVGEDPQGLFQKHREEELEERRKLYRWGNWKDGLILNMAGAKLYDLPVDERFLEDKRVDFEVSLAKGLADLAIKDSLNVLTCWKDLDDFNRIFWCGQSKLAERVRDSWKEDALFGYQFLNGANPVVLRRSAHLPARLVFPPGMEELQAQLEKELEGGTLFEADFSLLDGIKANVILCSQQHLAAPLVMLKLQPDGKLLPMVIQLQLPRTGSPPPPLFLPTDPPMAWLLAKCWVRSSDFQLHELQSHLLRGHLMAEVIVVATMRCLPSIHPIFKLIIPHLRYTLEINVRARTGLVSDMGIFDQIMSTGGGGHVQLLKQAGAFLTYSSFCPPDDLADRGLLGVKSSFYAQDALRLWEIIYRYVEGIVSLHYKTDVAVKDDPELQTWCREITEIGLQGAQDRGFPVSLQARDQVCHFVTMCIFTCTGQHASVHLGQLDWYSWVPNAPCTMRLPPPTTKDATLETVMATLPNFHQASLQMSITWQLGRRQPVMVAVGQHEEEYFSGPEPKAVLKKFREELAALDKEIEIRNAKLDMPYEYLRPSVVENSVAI
Test: ferrous oxidation-xylenol orange (FOX) assay with purified human 15-LO and arachidonic acid
Format: biochemical

- IC50: 4.4 µM
Structure (SMILES): CC(C)=CCC/C(C)=C/CC/C(C)=C/CC[C@@](C)(O)CCc1c(C)c(O)c(C)c(C)c1O [EPI-743-HQ, EPI-743 hydroquinone]
